Assay results from PMC4502414, “Transforming berberine into its intestine-absorbable form by the gut microbiota” (Scientific Reports, 2015).
Like-named read-outs stand apart in the source and are kept apart here.

What was measured:
nitroreductase = target: T1, nitroreductase (Escherichia coli, UniProt P38489); test: Nitroreductase-mediated BBR reduction, cell-free incubation; format: biochemical; details: 2-IBA 100 μM, nitroreductase-containing cell-free incubation; read-out: inhibition rate of BBR-to-dhBBR conversion
T1 construct: purchased Sigma-Aldrich Co. (Shanghai, China); host or cells: Escherichia coli
T1 sequence (P38489 whole entry): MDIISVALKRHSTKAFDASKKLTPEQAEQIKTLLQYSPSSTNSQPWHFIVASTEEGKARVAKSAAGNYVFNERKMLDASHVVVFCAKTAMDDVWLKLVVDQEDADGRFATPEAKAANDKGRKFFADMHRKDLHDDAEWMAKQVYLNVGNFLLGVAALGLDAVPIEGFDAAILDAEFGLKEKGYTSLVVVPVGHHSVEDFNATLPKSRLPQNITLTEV
Method: (§1) BBR was incubated with nitroreductase in intestinal bacteria cultures. The reaction mixture consisted of BBR (50 μg/ml), an NADPH-regenerating system and nitroreductase (5 μg/ml) in a final volume of 1 ml under the protection of N2. After incubation for 0, 2, 4, 6 and 12 h at 37 °C, the reaction was terminated by the addition of 1 ml of ice-cold acetonitrile. The samples were then extracted with 1 ml of ethyl acetate after adding 1 ml of 0.5 M sodium hydroxide solution. The organic phase was evaporated to dryness under a nitrogen flow in a water bath at 40 °C. The residue was dissolved with 200 μl of the mobile phase for further analysis. 2-Iodosobenzoic acid (2-IBA), a specific inhibitor of nitroreductase, was used to verify the role of bacterial nitroreductase.

[1] = tested on: mixture of rat gut bacteria; test: BBR-to-dhBBR conversion in rat gut bacteria mixture with nitroreductase inhibitor; format: cell-based; details: 2-IBA in BBR incubation with mixture of rat gut bacteria, 12 h
Method: as §1

[2] = 72-h cumulative fecal excretion of BBR and dhBBR in pseudo germ-free (PGF) and conventional rats; format: in vivo, SD rats; details: oral BBR 200 mg/kg
Method: Male SD rats (180–200 g) were orally treated with cefadroxil (100 mg/kg), terramycin (300 mg/kg) and erythromycin (300 mg/kg) twice a day for 3 days, and pharmacokinetic examination was performed 2 days after final administration. The colon contents of the rats were collected on the first and third days after the final treatment with antibiotics, and the germ-free status was confirmed by culturing fecal samples aerobically on a nutrient agar culture medium. Fecal samples from non-antibiotic-exposed rats served as control samples. Before oral administration of a single dose of BBR (200 mg/kg), the PGF rats were fasted overnight with free access to water. […] The samples were stored at −20 °C for further analysis.

17 intestinal bacteria = test: Anti-bacterial test (MIC, broth microdilution); format: cell-based; details: 24 h
Method: Seventeen bacterial strains (see above) were used in the susceptibility test for BBR and dhBBR. The bacterial strains, which belong to different species of bacteria, were collected and identified as described above. The minimum inhibitory concentrations (MICs) of BBR and dhBBR after 24 h were determined through the broth microdilution method according to the CLSI guidelines. BBR and dhBBR were tested at a concentration range of 8 to 512 μg/ml. The MIC was defined as the lowest concentration of an agent that prevents turbidity. The experiment was repeated three times. All of the bacterial strains tested in this study (S. aureus ATCC 29213, E. faecalis ATCC 29212, E. coli ATCC 25922, S. aureus 08-43, S. epidermidis 12-12, E. faecium 13-01, E. faecalis 13-01, E. coli 06-05, K. pneumoniae 13-14, Ps. aeruginosa 13-10, A. baumannii 13-02, E. cloacae 13-12, and P. mirabilis 13-01) were facultative anaerobes, of which S. aureus ATCC 29213, E. faecalis ATCC 29212 and E. coli ATCC 25922 were standard strains from ATCC (USA) and served as quality controls. L. casei ATCC 334, L. acidophilus ATCC 4356, B. longum ATCC 15707, and B. breve ATCC 15700 were also tested in this anti-bacterial experiment. Ampicillin was used as the positive control.

[3] = Absorption of BBR and dhBBR in Caco-2 cells; format: in vitro ADME; details: human
Method: A Caco-2 cell assay was conducted using a method reported previously. […] To determine the rate of drug transport in the apical-to-basolateral direction, 200 μl of the compound working solution was added to the filter well (apical compartment), and 800 μl of HBSS was added to the receiver plate (basolateral compartment). Accordingly, to determine the rate of drug transport in the basolateral-to-apical direction, 800 μl of the compound working solution was added to each well of the receiver plate and 200 μl of HBSS was added to the filter well. The plates were incubated for 30 min at 37 °C with shaking at 150 rpm on a rotary shaker. At the end of the transport period, aliquots of 50 μl were removed directly from the apical and basolateral wells and transferred to wells of new plates. Four volumes of cold methanol containing internal standards were added into each well. The samples were centrifuged at 16,000 g for 15 min. Aliquots of 200 μl of the supernatant were used for the LC-MS/MS analysis.

[4] = Plasma pharmacokinetics after oral dhBBR or BBR in rats; format: in vivo, SD rats; details: SD, rat, plasma, po, 200 mg/kg
Method: The plasma (100 μl) was precipitated with 100 μl of acetonitrile after addition of 10 μl of the internal standard. BBR served as a control in the study. The plasma concentrations of BBR and dhBBR were determined using LC-MS/MS 8040 and LC-MS/MS 8050.

[5] = Plasma BBR in pseudo germ-free versus conventional rats after oral BBR; format: in vivo; details: male, SD, rat, 200 mg/kg, oral BBR 200 mg/kg
Method: Male SD rats (180–200 g) were orally treated with cefadroxil (100 mg/kg), terramycin (300 mg/kg) and erythromycin (300 mg/kg) twice a day for 3 days, and pharmacokinetic examination was performed 2 days after final administration. The colon contents of the rats were collected on the first and third days after the final treatment with antibiotics, and the germ-free status was confirmed by culturing fecal samples aerobically on a nutrient agar culture medium. Fecal samples from non-antibiotic-exposed rats served as control samples.
Before oral administration of a single dose of BBR (200 mg/kg), the PGF rats were fasted overnight with free access to water. Blood samples were collected from the posterior orbital venous plexus into a heparinized tube at 0, 0.25, 0.5, 1, 1.5, 2, 3, 4, 6, 8, and 12 h post-BBR treatment and then subjected to the procedure described above. Fecal samples were also collected at 0, 6, 12, 24, 36 and 48 h post-BBR treatment. The samples were stored at −20 °C for further analysis.

[6] = Therapeutic effect of BBR on hyperglycemia and hyperlipidemia in KK-Ay mice with or without antibiotics; format: in vivo
Excerpt: KK-Ay mice with type 2 diabetes (female, 12 ± 1 weeks of age) were purchased from the Institute of Laboratory Animal Sciences, Chinese Academy of Medical Sciences (Beijing, China). […] Antibiotics at the doses described above were orally administered to KK-Ay mice for 3 days before the BBR treatment course, and the pseudo germ-free (PGF) state of the experimental mice was confirmed (see above). Four groups (n = 6 for each group) were used in the experiment: Group1, PGF KK-Ay mice orally treated with antibiotics (qd, at the dosage described above) plus BBR (200 mg/kg, qd) for 2 weeks; Group 2, untreated KK-Ay mice orally treated with BBR (200 mg/kg, qd) for 2 weeks; Group 3, PGF KK-Ay mice orally treated with antibiotics (qd, at a dosage identical to that for Group 1) for 2 weeks; Group 4, untreated KK-Ay mice. The antibiotics were administered in the morning and BBR was administered in the afternoon. All the animals were fed a high-fat diet. […] All of the mice were euthanized on day 14, and blood samples were taken to measure the fasting serum glucose (Glu), triglyceride (TG) and cholesterol (CHO) using Glu, TG and CHO reagent kits (Biosino Bio-Technology and Science INC, Beijing China), respectively. C57BL/6J mice were used as a wild-type reference. The body weights of the mice before, during and after treatments were recorded for 14 days.

[7] = Plasma concentration of BBR in KK-Ay mice treated or untreated with antibiotics; format: in vivo; details: for Cmax at 14 day: KK-Ay, mouse, plasma, oral, 200 mg/kg, BBR 200 mg/kg qd
Method: Blood samples of the mice in Groups 1 and 2 were collected into a heparinized tube 30 min after the oral administration of BBR. The samples were taken at days 1, 3, 6, 10 and 14 of the BBR treatment course. The samples were centrifuged at 10,000 g for 5 min, and the plasma was collected and stored at −80 °C before analysis.

[8] = parameters: method as in PMID 24174332; details: patients; cited from earlier work
[9] = parameters: method as in PMID 21637946, PMID 12530470; details: cited from earlier work
[10] = Effect of ions on the dhBBR-to-BBR transformation; details: EDTA-2Na 10 mM
Method: dhBBR was added into the reaction solution containing FeCl3, CuCl2, ZnCl2, and NaCl (at concentrations of 0.033, 0.333 and 3.33 mM, respectively). Ethylenediaminetetraacetic acid disodium salt (EDTA-2Na, 10 mM), a chelating agent for metal ions, was used in the test.

[11] = Effect of heat inactivation and vitamin C on dhBBR-to-BBR transformation in rat small intestine homogenate; format: in vitro ADME; details: added to the reaction solution
Method: The rats (n = 3) were sacrificed to obtain fresh small intestine homogenate. The homogenate was then boiled for 2 min to inactivate all of the enzymes. After pre-incubation at 37 °C for 2 min, 5 μl of dhBBR (10 mM, dissolved in DMSO) was added into the inactivated homogenate, and fresh homogenate (active one) was used as a reference. The sample was mixed thoroughly and centrifuged at 16,000 g for 5 min. The supernatant was transferred into new tubes, treated with 500 μl of acetonitrile, and then centrifuged. Twenty-microliter aliquots were used for the HPLC analysis.
To examine the oxidative reaction, 100 μl of vitamin C was pre-incubated with the inactivated homogenate; the final concentrations of vitamin C were 95, 9.5 and 0.95 mM. The superoxide anion in the sample was detected with an O2^− ELISA kit (Beijing Biolab Co., Ltd., Beijing, China; lot: 201404) following the manufacturer’s instructions.

[12] = parameters: method as in PMID 18285556; details: cited from earlier work

O=Ic1ccccc1C(=O)O [2-IBA, 2-iodosobenzoic acid]
inhibition at 100 µM (nitroreductase): 88.3% | inhibition of dhBBR production [1]: 78.7%

COc1ccc2cc3[n+](cc2c1OC)CCc1cc2c(cc1-3)OCO2 [BBR, berberine]
total BBR in feces over 72 h, % of the administered amount ([2]; PGF rats): 27.81% | total BBR in feces over 72 h, % of the administered amount ([2]; untreated (conventional) rats): 18.67% | MIC (17 intestinal bacteria; span over 17 strains, read-out: minimal inhibitory concentration (MIC) on the 17 bacteria): > 128 µg/mL | MIC (17 intestinal bacteria; read-out: MIC, most of the 17 tested strains): ≥ 512 µg/mL | efflux ratio at 30 min, 5 μM ([3]; Caco-2, pH 7.4, read-out: efflux ratio (ER)): 32.4 | Papp A→B at 30 min, 5 μM ([3]; pH 7.4, Caco-2, 5 μM, 30 min): 0.38 ×10⁻⁶ cm/s | AUC(0-t) ([4]; oral BBR 200 mg/kg, Fig. 3c curve 2, read-out: AUC(0-t) of BBR in plasma): 54.6 ng·h/mL | Cmax ([4]; oral BBR 200 mg/kg, Fig. 3c curve 2, read-out: Cmax of BBR in plasma): 16.1 ng/mL | AUC(0-t) ([4]; oral dhBBR 200 mg/kg, read-out: AUC(0-t) of BBR in blood): 262 ng·h/mL | Cmax ([4]; oral dhBBR 200 mg/kg, read-out: Cmax of BBR in blood): 52.5 ng/mL | AUC(0-t) ([5]; conventional SD rat): 70.9 ng·h/mL | Cmax ([5]; conventional SD rat): 26 ng/mL | AUC(0-t) ([5]; pseudo germ-free rat): 11.9 ng·h/mL | Cmax ([5]; pseudo germ-free rat): 6.92 ng/mL | reduction of therapeutic efficacy of BBR on cholesterol by antibiotics ([6]; Group 1 vs Group 2, day 14): 44% | reduction of therapeutic efficacy of BBR on triglyceride by antibiotics ([6]; Group 1 vs Group 2, day 14): 53% | reduction of therapeutic efficacy of BBR on fasting blood glucose by antibiotics ([6]; antibiotics before and during BBR (Group 1) vs BBR only (Group 2), day 14): 42% | Cmax at 14 day ([7]; day 14, mice treated with antibiotics (Group 1)): 28.3 ± 3.41 ng/mL | Cmax at 14 day ([7]; day 14, mice without antibiotics (Group 2)): 178 ± 57.6 ng/mL | Folds of Cmax [BBR / (BBR+Antibiotics)] ([7]; day 14): 6.4 fold | Folds of Cmax, Group 2 over Group 1 ([7]; throughout days 1, 3, 6, 10 and 14): 3.5-6.5 fold | reduction of LDL-c level [8]: 10–25% | reduction of fasting blood glucose level [8]: 21–36% | reduction of triglyceride level [8]: 20–35% | water solubility [9]: poor water solubility

O=C([O-])CN(CCN(CC(=O)O)CC(=O)O)CC(=O)[O-].[Na+].[Na+] [EDTA-2Na, Ethylenediaminetetraacetic acid disodium salt]
reduction of dhBBR-to-BBR oxidization [10]: 5%

O=C1O[C@H]([C@@H](O)CO)C(O)=C1O [vitamin C]
effect on dhBBR-to-BBR reversion [11]: almost completely terminated

dihydroberberine sulfate
absorption in the intestine compared with BBR [12]: better absorption
